Experimental data as given in the OligoGym collection.
Where “and” joins values, the source holds several entries; their conditions need not be identical. Equal values may be shown once. After the bases stand the sugars from the 5' end (letter, count) and the backbone: PS all phosphorothioate, else s phosphorothioate and o phosphodiester by linkage. Methylation of C is not given here. e = 2'-O-(2-methoxyethyl) (MOE); d = 2'-deoxy (DNA)

Target: DGAT2
Details: ASO

GCACCTGTTACTACATGTCT (sugars e5 d10 e5, PS)
target mRNA inhibition (HepG2, 2.5 µM): 87% and 78% | target mRNA inhibition (HepG2, 10 µM): 92% and 84%

GCACTCTCTCTGCACACTCC (sugars e5 d10 e5, PS)
target mRNA inhibition (HepG2, 2.5 µM): 61% | target mRNA inhibition (HepG2, 10 µM): 87%

GCACTTGATCTGGGACCCAA (sugars e5 d10 e5, PS)
target mRNA inhibition (HepG2, 2.5 µM): 69% and 73% | target mRNA inhibition (HepG2, 10 µM): 95% and 92%

GCAGATCTTCATTACATGAT (sugars e5 d10 e5, PS)
target mRNA inhibition (HepG2, 10 µM): 86% and 91%

GCAGGACCCCGGAGTAGGCG (sugars e2 d13 e5, PS)
target mRNA inhibition (HepG2, 0.12 µM): 68%

GCAGGACCCCGGAGTAGGCG (sugars e5 d10 e5, PS)
target mRNA inhibition (HepG2, 0.12 µM): 58%

GCAGGGTTACCCAGCCACTG (sugars e5 d10 e5, PS)
target mRNA inhibition (HepG2, 2.5 µM): 85% and 67% | target mRNA inhibition (HepG2, 10 µM): 75% and 88%

GCAGGTTCATCTGCCTT (sugars e3 d10 e4, PS)
target mRNA inhibition (HepG2, 2.5 µM): 54% | target mRNA inhibition (HepG2, 10 µM): 82%

GCAGTCTGCCTGATTCCCTT (sugars e5 d10 e5, PS)
target mRNA inhibition (HepG2, 2.5 µM): 60% | target mRNA inhibition (HepG2, 10 µM): 93%

GCATAGCTGAGCAAATCCAT (sugars e5 d10 e5, PS)
target mRNA inhibition (HepG2, 2.5 µM): 69% | target mRNA inhibition (HepG2, 10 µM): 85%

GCATGCTTCCTCCCACTTCA (sugars e5 d10 e5, PS)
target mRNA inhibition (HepG2, 2.5 µM): 84% | target mRNA inhibition (HepG2, 10 µM): 76%

GCCAATGCCTAGGTCAC (sugars e3 d10 e4, PS)
target mRNA inhibition (HepG2, 2.5 µM): 85% and 93% | target mRNA inhibition (HepG2, 10 µM): 79% and 93%

GCCACTCCCAGTACAAGGAA (sugars e5 d10 e5, PS)
target mRNA inhibition (HepG2, 0.12 µM): 0%

GCCAGGTAAGGCCGTATGCC (sugars e3 d14 e3, PS)
target mRNA inhibition (HepG2, 0.12 µM): 61%

GCCAGGTGCTCTCATTTCTT (sugars e5 d10 e5, PS)
target mRNA inhibition (HepG2, 2.5 µM): 63% | target mRNA inhibition (HepG2, 10 µM): 91%

GCGATTCACTGAGGACCTCA (sugars e5 d10 e5, PS)
target mRNA inhibition (HepG2, 2.5 µM): 74% | target mRNA inhibition (HepG2, 10 µM): 86%

GCGCCACACAGCCCAGTTTC (sugars e5 d10 e5, PS)
target mRNA inhibition (HepG2, 0.12 µM): 31%

GCGCGATTCACTGAGGACCT (sugars e5 d10 e5, PS)
target mRNA inhibition (HepG2, 2.5 µM): 75% | target mRNA inhibition (HepG2, 10 µM): 76%

GCTCACTTCTGTGGCCTCTG (sugars e5 d10 e5, PS)
target mRNA inhibition (HepG2, 0.12 µM): 41%

GCTCAGCACTGACATGGTAA (sugars e5 d10 e5, PS)
target mRNA inhibition (HepG2, 2.5 µM): 79% and 66% | target mRNA inhibition (HepG2, 10 µM): 96% and 92%

GCTCTCATTTCTTATCTTCA (sugars e5 d10 e5, PS)
target mRNA inhibition (HepG2, 2.5 µM): 82% and 80% | target mRNA inhibition (HepG2, 10 µM): 95% and 93%

GCTGGTGTTCTACAAGCTGC (sugars e5 d10 e5, PS)
target mRNA inhibition (HepG2, 2.5 µM): 79% and 81% and 83% | target mRNA inhibition (HepG2, 10 µM): 90% and 86% and 88%

GCTTCACCAGGGCCTCCATG (sugars e5 d10 e5, PS)
target mRNA inhibition (HepG2, 0.12 µM): 31% | target mRNA inhibition (HepG2, 2.5 µM): 34% | target mRNA inhibition (HepG2, 10 µM): 57% | target mRNA inhibition (HepG2, 20 µM): 80%

GCTTGGAGTAGGGCACCAGC (sugars e5 d10 e5, PS)
target mRNA inhibition (HepG2, 0.12 µM): 45%

GGACAGGAGGGTCACACACA (sugars e5 d10 e5, PS)
target mRNA inhibition (HepG2, 0.12 µM): 45%

GGACCCACTGGAGCACTGAG (sugars e5 d10 e5, PS)
target mRNA inhibition (HepG2, 0.12 µM): 84% | target mRNA inhibition (HepG2, 2.5 µM): 14% | target mRNA inhibition (HepG2, 10 µM): 47% | target mRNA inhibition (HepG2, 20 µM): 73%

GGAGCAGGCCTCGGGAAGCA (sugars e5 d10 e5, PS)
target mRNA inhibition (HepG2, 2.5 µM): 38% | target mRNA inhibition (HepG2, 10 µM): 85%

GGAGCTCAGAGACTCAGCCG (sugars e2 d13 e5, PS)
target mRNA inhibition (HepG2, 0.12 µM): 65%

GGAGTAGGGCACCAGCCCCC (sugars e5 d10 e5, PS)
target mRNA inhibition (HepG2, 0.12 µM): 17%

GGATACTCAGAAGAGCAGTG (sugars e5 d10 e5, PS)
target mRNA inhibition (HepG2, 2.5 µM): 60% | target mRNA inhibition (HepG2, 10 µM): 80%

GGATAGTCGATTTACCAGAA (sugars e5 d10 e5, PS)
target mRNA inhibition (HepG2, 2.5 µM): 69% | target mRNA inhibition (HepG2, 10 µM): 85%

GGCAAAGTAACATACCTGCT (sugars e5 d10 e5, PS)
target mRNA inhibition (HepG2, 2.5 µM): 72% and 91% | target mRNA inhibition (HepG2, 10 µM): 94%

GGCACAGAAAAGTGAGGCTT (sugars e5 d10 e5, PS)
target mRNA inhibition (HepG2, 0.12 µM): 32%

GGCACCTGTTACTACATGTC (sugars e5 d10 e5, PS)
target mRNA inhibition (HepG2, 2.5 µM): 80% and 75% | target mRNA inhibition (HepG2, 10 µM): 94% and 89%

GGCAGATCTTCATTACATGA (sugars e5 d10 e5, PS)
target mRNA inhibition (HepG2, 2.5 µM): 75% and 70% | target mRNA inhibition (HepG2, 10 µM): 80% and 78%

GGCATGCTTCCTCCCAC (sugars e3 d10 e4, PS)
target mRNA inhibition (HepG2, 2.5 µM): 56% | target mRNA inhibition (HepG2, 10 µM): 56%

GGCATGGAGCTCAGAGACTC (sugars e3 d14 e3, PS)
target mRNA inhibition (HepG2, 0.12 µM): 74%

GGGAAAGGTCTTCTCCAGCT (sugars e5 d10 e5, PS)
target mRNA inhibition (HepG2, 2.5 µM): 86% and 85% | target mRNA inhibition (HepG2, 10 µM): 92% and 91%

GGGACTCAGTGTCCTCCTTA (sugars e5 d10 e5, PS)
target mRNA inhibition (HepG2, 2.5 µM): 69% | target mRNA inhibition (HepG2, 10 µM): 78%

GGGTTCTTGTCCTGGTCCCA (sugars e5 d10 e5, PS)
target mRNA inhibition (HepG2, 2.5 µM): 79% and 66% | target mRNA inhibition (HepG2, 10 µM): 90%

GGTCAGCAGGTTGTGTGTCT (sugars e2 d13 e5, PS)
target mRNA inhibition (HepG2, 0.12 µM): 45%

GGTCTGGGAACAGCAGCATC (sugars e5 d10 e5, PS)
target mRNA inhibition (HepG2, 2.5 µM): 59% | target mRNA inhibition (HepG2, 10 µM): 79%

GGTGAATAGCTATGTCTAAA (sugars e5 d10 e5, PS)
target mRNA inhibition (HepG2, 2.5 µM): 70% and 55% | target mRNA inhibition (HepG2, 10 µM): 91% and 85%

GGTGCTCTCATTTCTTATCT (sugars e5 d10 e5, PS)
target mRNA inhibition (HepG2, 2.5 µM): 56% and 59% | target mRNA inhibition (HepG2, 10 µM): 82% and 92%

GGTGGGAAACTTGGAAACTT (sugars e5 d10 e5, PS)
target mRNA inhibition (HepG2, 0.12 µM): 37%

GGTGGTCAGCAGGTTGTGTG (sugars e5 d10 e5, PS)
target mRNA inhibition (HepG2, 0.12 µM): 29%

GGTTATTGCAACCACTAGGA (sugars e5 d10 e5, PS)
target mRNA inhibition (HepG2, 2.5 µM): 80% | target mRNA inhibition (HepG2, 10 µM): 91%

GTAAGCCTCGGTGTCCT (sugars e3 d10 e4, PS)
target mRNA inhibition (HepG2, 2.5 µM): 62% | target mRNA inhibition (HepG2, 10 µM): 79%

GTAAGGGTATTCTGCTCATA (sugars e5 d10 e5, PS)
target mRNA inhibition (HepG2, 10 µM): 86% and 95%

GTACAAGTTTCTCCACCTAT (sugars e5 d10 e5, PS)
target mRNA inhibition (HepG2, 2.5 µM): 68% and 88% | target mRNA inhibition (HepG2, 10 µM): 79% and 87%

GTAGACTCTCCATGAGCCTA (sugars e5 d10 e5, PS)
target mRNA inhibition (HepG2, 2.5 µM): 49% | target mRNA inhibition (HepG2, 10 µM): 88%

GTATCCAAAGATATAGTTCC (sugars e5 d10 e5, PS)
target mRNA inhibition (HepG2, 0.12 µM): 8%

GTCACTGACTCACAACAGCA (sugars e5 d10 e5, PS)
target mRNA inhibition (HepG2, 2.5 µM): 58% | target mRNA inhibition (HepG2, 10 µM): 92%

GTCAGCAGGTTGTGTGTCTT (sugars e2 d13 e5, PS)
target mRNA inhibition (HepG2, 0.12 µM): 58%

GTCAGCAGGTTGTGTGTCTT (sugars e3 d14 e3, PS)
target mRNA inhibition (HepG2, 0.12 µM): 61%

GTCCTCCTTAGCTTTAATCC (sugars e5 d10 e5, PS)
target mRNA inhibition (HepG2, 2.5 µM): 62% | target mRNA inhibition (HepG2, 10 µM): 85%

GTCTCTCATAATTGCCAGTT (sugars e5 d10 e5, PS)
target mRNA inhibition (HepG2, 2.5 µM): 53% and 66% | target mRNA inhibition (HepG2, 10 µM): 83% and 87%

GTCTTCACCAGCTGGATGGG (sugars e5 d10 e5, PS)
target mRNA inhibition (HepG2, 0.12 µM): 42%

GTGCAAGAGTTACCTCCTCC (sugars e5 d10 e5, PS)
target mRNA inhibition (HepG2, 2.5 µM): 80% and 78% | target mRNA inhibition (HepG2, 10 µM): 94% and 92%

GTGCAGAATATGTACATGAG (sugars e5 d10 e5, PS)
target mRNA inhibition (HepG2, 0.12 µM): 43%

GTGGTCAGCAGGTTGTGTGT (sugars e5 d10 e5, PS)
target mRNA inhibition (HepG2, 0.12 µM): 44% | target mRNA inhibition (HepG2, 2.5 µM): 0%

GTGTCGGAGGAGAAGAGGCC (sugars e5 d10 e5, PS)
target mRNA inhibition (HepG2, 0.12 µM): 52%
